Experiment in all cases: AK assay 384-well format, Prestwick library screening
Test [1] has as its system A. baumannii strain 98-37-09. The test is classed as cell-based, Acinetobacter baumannii. The conditions noted are these: Acinetobacter baumannii, 983709, 3 h, 50 μM final drug concentration.
The subject of another test is E. faecium. The test is classed as cell-based, Enterococcus faecium. The conditions noted are these: Enterococcus faecium, 3 h, 50 μM final drug concentration.
For a further test, the system named is E. cloacae. In kind it is cell-based, Enterobacter cloacae. The conditions noted are these: Enterobacter cloacae, 3 h, 50 μM final drug concentration.
The subject of the next test is K. pneumoniae. In kind it is cell-based, Klebsiella pneumoniae. The conditions noted are these: Klebsiella pneumoniae, 3 h, 50 μM final drug concentration.
For a further test, the system named is E. coli. In kind it is cell-based, Escherichia coli. The note with it: Escherichia coli, 3 h, 50 μM final drug concentration.
In a further test the test system is P. aeruginosa. In kind it is cell-based, Pseudomonas aeruginosa. The conditions noted are these: Pseudomonas aeruginosa, 3 h, 50 μM final drug concentration.
Test [2] deals with S. aureus strain USA300-0114. In kind it is cell-based, Staphylococcus aureus. The note with it: Staphylococcus aureus, USA300, 3 h, 50 μM final drug concentration.
[3] abbreviates: planktonic, cutoff for positive-scoring molecules 3-fold increase, read-out: AK-based Prestwick Library Screening Results, A. baumannii (fold increase in extracellular AK activity).
Where [4] appears, read: planktonic, cutoff for positive-scoring molecules 3-fold increase, read-out: AK-based Prestwick Library Screening Results, E. faecium (fold increase in extracellular AK activity).
Where [5] appears, read: planktonic, cutoff for positive-scoring molecules 3-fold increase, read-out: AK-based Prestwick Library Screening Results, E. cloacae (fold increase in extracellular AK activity).
[6] abbreviates: planktonic, cutoff for positive-scoring molecules 3-fold increase, read-out: AK-based Prestwick Library Screening Results, K. pneumoniae (fold increase in extracellular AK activity).
Setting [7] is: planktonic, cutoff for positive-scoring molecules 3-fold increase, read-out: AK-based Prestwick Library Screening Results, E. coli (fold increase in extracellular AK activity).
[8] abbreviates: planktonic, cutoff for positive-scoring molecules 3-fold increase, read-out: AK-based Prestwick Library Screening Results, P. aeruginosa (fold increase in extracellular AK activity).
[9] abbreviates: planktonic, cutoff for positive-scoring molecules 3-fold increase, read-out: AK-based Prestwick Library Screening Results, S. aureus (fold increase in extracellular AK activity).
[10] abbreviates: planktonic A. baumannii, cutoff for positive-scoring molecules 3-fold increase, read-out: AK-based Prestwick Library Screening Results, A. baumannii (increase in extracellular AK activity).
The mark [11] stands for this setting: planktonic E. faecium, cutoff for positive-scoring molecules 3-fold increase, read-out: AK-based Prestwick Library Screening Results, E. faecium (increase in extracellular AK activity).
The mark [12] stands for this setting: planktonic E. cloacae, cutoff for positive-scoring molecules 3-fold increase, read-out: AK-based Prestwick Library Screening Results, E. cloacae (increase in extracellular AK activity).
Setting [13] is: planktonic K. pneumoniae, cutoff for positive-scoring molecules 3-fold increase, read-out: AK-based Prestwick Library Screening Results, K. pneumoniae (increase in extracellular AK activity).
Where [14] appears, read: planktonic E. coli, cutoff for positive-scoring molecules 3-fold increase, read-out: AK-based Prestwick Library Screening Results, E. coli (increase in extracellular AK activity).
Where [15] appears, read: planktonic P. aeruginosa, cutoff for positive-scoring molecules 3-fold increase, read-out: AK-based Prestwick Library Screening Results, P. aeruginosa (increase in extracellular AK activity).
Setting [16] is: planktonic S. aureus, cutoff for positive-scoring molecules 3-fold increase, read-out: AK-based Prestwick Library Screening Results, S. aureus (increase in extracellular AK activity).
The mark [17] stands for this setting: 384-well format, cutoff for positive-scoring molecules 3-fold increase, read-out: AK-based Prestwick Library Screening Results, A. baumannii (increase in extracellular AK activity).
Setting [18] is: 384-well format, cutoff for positive-scoring molecules 3-fold increase, read-out: AK-based Prestwick Library Screening Results, E. faecium (increase in extracellular AK activity).
[19] abbreviates: 384-well format, cutoff for positive-scoring molecules 3-fold increase, read-out: AK-based Prestwick Library Screening Results, E. cloacae (increase in extracellular AK activity).
Setting [20] is: 384-well format, cutoff for positive-scoring molecules 3-fold increase, read-out: AK-based Prestwick Library Screening Results, K. pneumoniae (increase in extracellular AK activity).
Where [21] appears, read: 384-well format, cutoff for positive-scoring molecules 3-fold increase, read-out: AK-based Prestwick Library Screening Results, E. coli (increase in extracellular AK activity).
The mark [22] stands for this setting: 384-well format, cutoff for positive-scoring molecules 3-fold increase, read-out: AK-based Prestwick Library Screening Results, P. aeruginosa (increase in extracellular AK activity).
The mark [23] stands for this setting: 384-well format, cutoff for positive-scoring molecules 3-fold increase, read-out: AK-based Prestwick Library Screening Results, S. aureus (increase in extracellular AK activity).
Setting [24] is: planktonic A. baumannii, 384-well, cutoff for positive-scoring molecules 3-fold increase, read-out: AK-based Prestwick Library Screening Results: A. baumannii (increase in extracellular AK activity).
Setting [25] is: planktonic E. faecium, 384-well, cutoff for positive-scoring molecules 3-fold increase, read-out: AK-based Prestwick Library Screening Results: E. faecium (increase in extracellular AK activity).
Where [26] appears, read: planktonic E. cloacae, 384-well, cutoff for positive-scoring molecules 3-fold increase, read-out: AK-based Prestwick Library Screening Results: E. cloacae (increase in extracellular AK activity).
Where [27] appears, read: planktonic K. pneumoniae, 384-well, cutoff for positive-scoring molecules 3-fold increase, read-out: AK-based Prestwick Library Screening Results: K. pneumoniae (increase in extracellular AK activity).
Where [28] appears, read: planktonic E. coli, 384-well, cutoff for positive-scoring molecules 3-fold increase, read-out: AK-based Prestwick Library Screening Results: E. coli (increase in extracellular AK activity).
Setting [29] is: planktonic P. aeruginosa, 384-well, cutoff for positive-scoring molecules 3-fold increase, read-out: AK-based Prestwick Library Screening Results: P. aeruginosa (increase in extracellular AK activity).
Where [30] appears, read: planktonic S. aureus, 384-well, cutoff for positive-scoring molecules 3-fold increase, read-out: AK-based Prestwick Library Screening Results: S. aureus (increase in extracellular AK activity).

Where a name gives a salt, the structure may show the parent alone. Read-outs that look alike come from different tables or passages of the source.

As to `CCCC(=O)Nc1ncnc2c1ncn2[C@@H]1O[C@@H]2COP(=O)(O)O[C@H]2[C@H]1OC(=O)CCC` [Bucladesine sodium salt], the fold induction at 50 µM is 0.8 in test [1] (setting [3]); 0.9 in the test with E. faecium (setting [4]); 0.9 with E. cloacae (setting [5]); 0.6 in the test with K. pneumoniae (setting [6]); 0.7 in the test with E. coli (setting [7]); 0.8 with P. aeruginosa (setting [8]). Besides, the fold induction at 50 µM in test [2] (setting [9]) was found to be 0.7.

For `CCCC1O[C@@H]2C[C@H]3[C@@H]4CCC5=CC(=O)C=C[C@]5(C)[C@H]4[C@@H](O)C[C@]3(C)[C@]2(C(=O)CO)O1` (some centres unmarked) [Budesonide], the fold induction at 50 µM is 0.9 in test [1] (setting [10]); 0.9 with E. faecium (setting [11]); 1.4 with E. cloacae (setting [12]); 0.7 in the test on K. pneumoniae (setting [13]); 0.9 in the test with E. coli (setting [14]); 0.9 with P. aeruginosa (setting [15]). Further, in test [2] (setting [16]), the fold induction at 50 µM was 0.6.

`CCCCOc1ccc(CC(=O)NO)cc1` [Bufexamac]: the fold induction at 50 µM turned out to be 0.5 in test [1] (setting [17]); 0.9 in the test on E. faecium (setting [18]); 0.6 in the test on E. cloacae (setting [19]); 0.5 with K. pneumoniae (setting [20]); 0.5 in the test with E. coli (setting [21]); 0.5 in the test with P. aeruginosa (setting [22]). For the same compound, the fold induction at 50 µM in test [2] (setting [23]) was 0.4.

As to `COc1cc(OC)c(C(=O)CCCN2CCCC2)c(OC)c1` [Buflomedil hydrochloride], the fold induction at 50 µM in test [1] (setting [10]) stood at 0.7; with E. faecium (setting [11]) it was 0.8; with E. cloacae (setting [12]), 0.9; with K. pneumoniae (setting [13]) it was 0.6; with E. coli (setting [14]), 0.8; in the test on P. aeruginosa (setting [15]), 0.8. Also, the fold induction at 50 µM in test [2] (setting [16]) was 0.6.

For the compound `CCCCNc1cc(C(=O)O)cc(S(N)(=O)=O)c1Oc1ccccc1` [Bumetanide], the fold induction at 50 µM amounted to 0.8 in test [1] (setting [17]); 0.9 with E. faecium (setting [18]); 1.3 in the test on E. cloacae (setting [19]); 0.7 in the test with K. pneumoniae (setting [20]); 0.9 with E. coli (setting [21]); 0.8 in the test on P. aeruginosa (setting [22]). Further, the fold induction at 50 µM in test [2] (setting [23]) amounted to 0.7.

With `CCCCN1CCCCC1C(=O)Nc1c(C)cccc1C` (centres unmarked) [Bupivacaine hydrochloride], the fold induction at 50 µM was 1.4 in test [1] (setting [24]); 1 in the test on E. faecium (setting [25]); 1.5 with E. cloacae (setting [26]); 1 in the test with K. pneumoniae (setting [27]); 1.3 in the test on E. coli (setting [28]); 1.2 in the test with P. aeruginosa (setting [29]). Further, the fold induction at 50 µM in test [2] (setting [30]) was found to be 1.1.

For the compound `CC(NC(C)(C)C)C(=O)c1cccc(Cl)c1` (centres unmarked) [Bupropion hydrochloride], the fold induction at 50 µM in test [1] (setting [17]) stood at 0.5; with E. faecium (setting [18]), 1; in the test with E. cloacae (setting [19]), 0.5; in the test with K. pneumoniae (setting [20]), 0.5; in the test with E. coli (setting [21]), 0.5; in the test with P. aeruginosa (setting [22]) it was 0.5. In addition, the fold induction at 50 µM in test [2] (setting [23]) was determined as 0.5.

With `CCCCN(CCCC)CCCOC(=O)c1ccc(N)cc1` [Butacaine], the fold induction at 50 µM in test [1] (setting [3]) is 0.9; with E. faecium (setting [4]), 0.9; in the test with E. cloacae (setting [5]) it was 1.4; in the test on K. pneumoniae (setting [6]), 0.8; with E. coli (setting [7]) it was 0.9; in the test with P. aeruginosa (setting [8]), 1. Further, the fold induction at 50 µM in test [2] (setting [9]) was found to be 0.8.

In the case of `CCCCOC(=O)c1ccc(N)cc1` [Butamben], the fold induction at 50 µM in test [1] (setting [3]) was 0.7; in the test on E. faecium (setting [4]), 0.8; in the test on E. cloacae (setting [5]), 1.7; in the test on K. pneumoniae (setting [6]), 0.6; in the test on E. coli (setting [7]) it was 0.8; in the test with P. aeruginosa (setting [8]), 0.9. Also, the fold induction at 50 µM in test [2] (setting [9]) was determined as 1.1.

With `Clc1ccc(CCC(Cn2ccnc2)Sc2c(Cl)cccc2Cl)cc1` (centres unmarked) [Butoconazole nitrate], the fold induction at 50 µM amounted to 2 in test [1] (setting [24]); 3.3 in the test with E. faecium (setting [25]); 0.5 in the test on E. cloacae (setting [26]); 0.7 with K. pneumoniae (setting [27]); 0.7 in the test with E. coli (setting [28]); 0.5 with P. aeruginosa (setting [29]). Besides, the fold induction at 50 µM in test [2] (setting [30]) worked out at 0.6.

For the compound `CCCCOC(=O)c1ccc(O)cc1` [Butylparaben], the fold induction at 50 µM turned out to be 0.6 in test [1] (planktonic, […], read-out: AK-based Prestwick Library Screening Results, A. baumannii (fold increase in extracellular AK activity)); 0.5 with E. faecium (planktonic, […], read-out: AK-based Prestwick Library Screening Results, E. faecium (fold increase in extracellular AK activity)); 1 in the test with E. cloacae (planktonic, […], read-out: AK-based Prestwick Library Screening Results, E. cloacae (fold increase in extracellular AK activity)); 0.4 with K. pneumoniae (planktonic, […], read-out: AK-based Prestwick Library Screening Results, K. pneumoniae (fold increase in extracellular AK activity)); 0.5 with E. coli (planktonic, […], read-out: AK-based Prestwick Library Screening Results, E. coli (fold increase in extracellular AK activity)); 0.6 in the test on P. aeruginosa (planktonic, […], read-out: AK-based Prestwick Library Screening Results, P. aeruginosa (fold increase in extracellular AK activity)). Further, in test [2] (planktonic, […], read-out: AK-based Prestwick Library Screening Results, S. aureus (fold increase in extracellular AK activity)), the fold induction at 50 µM worked out at 0.7.
